According to ChEMBL document CHEMBL1125127 (J Med Chem, 1990):

Experiments:
[1] = test system: Canis familiaris; test: Maximum change in […] from control value in anesthetized dogs; 10 uM.; assay type: functional, Canis lupus familiaris
[2] = test system: Canis familiaris; test: Percent change in heart rate (HR) from control at active dose 10-30 mg/kg administered intraduodenally
[3] = test system: Canis familiaris; test: Percent change in blood pressure (BP) from control at active dose 10-30 mg/kg administered intraperitoneally in anesthetized dogs; assay type: functional, Canis lupus familiaris
[4] = test system: Canis familiaris; test: Percent change in FRP from control at active dose 10-30 mg/kg administered intraperitoneally in anesthetized dogs; assay type: functional, Canis lupus familiaris
[5] = Ratio of number of active animals to number of treated at dose 10-30 mg/kg administered intraperitoneally in anesthetized dogs; No of animals tested=3; assay type: functional
[6] = test system: Canis familiaris; test: Concentration that causes a 20% increase in APD95 (action potential duration at 95% repolarization) from control value in anesthetized dogs; assay type: functional, Canis lupus familiaris
[7] = target: Beta adrenergic receptor (Canis familiaris)
[8] = test system: Canis familiaris; test: Concentration at which maximum change in […] was observed from control value in anesthetized dogs; The maximum observed change APD95 from control value and concentration at 30 uM when this occurred; assay type: functional, Canis lupus familiaris
[9] = target: Adrenergic receptor beta (Canis lupus familiaris); test: Tested for beta-receptor binding inhibition from canine ventricular tissue, using [3H]dihydroalprenolol as the radioligand in anesthetized dogs
[10] = Ratio of number of active animals to number of treated in anesthetized dogs; No of animals tested=2; assay type: functional
[11] = target: Beta-1 adrenergic receptor (Canis familiaris)
[12] = target: T1, Beta-2 adrenergic receptor (Canis lupus familiaris, UniProt P54833)
Description: Tested for Beta-2 adrenergic receptor selectivity in canine lung tissue in anesthetized dogs

[13] = Ratio of number of active animals to number of treated animals; No of animals tested=2; assay type: functional
[14] = test system: Canis familiaris; test: Concentration at which maximum change in […] was observed from control value in anesthetized dogs; The maximum observed change APD95 from control value and concentration at 100 uM when this occurred; assay type: functional, Canis lupus familiaris
[15] = target: T1, Beta-2 adrenergic receptor; test: Beta2-receptor selectivity in canine lung tissue in anesthetized dogs; assay type: functional
[16] = target: Beta-1 adrenergic receptor (Canis lupus familiaris); test: Tested for beta1-receptor selectivity in canine cardiac tissue in anesthetized dogs
[17] = test system: Canis familiaris; test: Percent change in FRP from control at active dose 30 mg/kg administered intraperitoneally in anesthetized dogs; assay type: functional, Canis lupus familiaris; settings: route intraperitoneal
[18] = test system: Canis familiaris; test: Percent change in blood pressure (BP) from control at active dose 30 mg/kg administered intraperitoneally in anesthetized dogs; assay type: functional, Canis lupus familiaris; settings: route intraperitoneal
[19] = Ratio of number of active animals to number of treated at dose 30 mg/kg administered intraperitoneally in anesthetized dogs; No of animals tested=2; assay type: functional; settings: route intraperitoneal
[20] = test system: Canis familiaris; test: Percent change in heart rate (HR) from control at active dose 30 mg/kg administered intraduodenally; settings: route intraduodenal
[21] = test system: Canis familiaris; test: Percent change in blood pressure (BP) from control at active dose 10 mg/kg administered intraperitoneally in anesthetized dogs; assay type: functional, Canis lupus familiaris; settings: route intraperitoneal
[22] = test system: Canis familiaris; test: Percent change in FRP from control at active dose 10 mg/kg administered intraperitoneally in anesthetized dogs; assay type: functional, Canis lupus familiaris; settings: route intraperitoneal
[23] = test system: Canis familiaris; test: Percent change in blood pressure (BP) from control at active dose 1.0-10 mg/kg administered intraperitoneally in anesthetized dogs; assay type: functional, Canis lupus familiaris
[24] = Ratio of number of active animals to number of treated at dose 1.0-10 mg/kg administered intraperitoneally in PES model in anesthetized dogs; 3/5; assay type: functional
[25] = test system: Canis familiaris; test: Percent change in FRP from control at active dose 1.0-10 mg/kg administered intraperitoneally; assay type: functional, Canis lupus familiaris
[26] = test system: Canis familiaris; test: Percent change in heart rate (HR) from control at active dose 10 mg/kg administered intraduodenally; settings: route intraduodenal
[27] = test system: Canis familiaris; test: Percent change in heart rate (HR) from control at active dose 1.0-10 mg/kg administered intraperitoneally in anesthetized dogs; assay type: functional, Canis lupus familiaris
[28] = Ratio of number of active animals to number of treated at dose 3.0 mg/kg administered intraperitoneally in Epinephrine-induced model in anesthetized dogs; 6/6; settings: route intraperitoneal
[29] = test system: Canis familiaris; test: Percent change in blood pressure (BP) from control at active dose 0.3-10 mg/kg administered intraperitoneally in anesthetized dogs; assay type: functional, Canis lupus familiaris
[30] = test system: Canis familiaris; test: Percent change in heart rate (HR) from control at active dose 0.3-10 mg/kg administered intraperitoneally in anesthetized dogs; assay type: functional, Canis lupus familiaris
[31] = Ratio of number of active animals to number of treated at dose 1.0 mg/kg administered intraperitoneally in Epinephrine-induced model in anesthetized dogs; 4/4; assay type: functional; settings: route intraperitoneal
[32] = test system: Canis familiaris; test: Percent change in FRP from control at active dose 0.3-10 mg/kg administered intraperitoneally; assay type: functional, Canis lupus familiaris
[33] = test system: Canis familiaris; test: Percent change in heart rate (HR) from control at active dose 10-30 mg/kg administered intraperitoneally; assay type: functional, Canis lupus familiaris
[34] = test system: Canis familiaris; test: Percent change in FRP from control at active dose 1.0-10 mg/kg administered intravenously
[35] = test system: Canis familiaris; test: Percent change in heart rate (HR) from control at active dose 1.0-10 mg/kg administered intravenously in conscious dogs
[36] = test system: Canis familiaris; test: Concentration at which maximum change in […] was observed from control value in anesthetized dogs; The maximum observed change APD95 from control value and concentration at 10 uM when this occurred; assay type: functional, Canis lupus familiaris
[37] = Ratio of number of active animals to number of treated at dose 10 mg/kg administered intraperitoneally in anesthetized dogs; No of animals tested=2; assay type: functional; settings: route intraperitoneal

T1 sequence (P54833 whole entry): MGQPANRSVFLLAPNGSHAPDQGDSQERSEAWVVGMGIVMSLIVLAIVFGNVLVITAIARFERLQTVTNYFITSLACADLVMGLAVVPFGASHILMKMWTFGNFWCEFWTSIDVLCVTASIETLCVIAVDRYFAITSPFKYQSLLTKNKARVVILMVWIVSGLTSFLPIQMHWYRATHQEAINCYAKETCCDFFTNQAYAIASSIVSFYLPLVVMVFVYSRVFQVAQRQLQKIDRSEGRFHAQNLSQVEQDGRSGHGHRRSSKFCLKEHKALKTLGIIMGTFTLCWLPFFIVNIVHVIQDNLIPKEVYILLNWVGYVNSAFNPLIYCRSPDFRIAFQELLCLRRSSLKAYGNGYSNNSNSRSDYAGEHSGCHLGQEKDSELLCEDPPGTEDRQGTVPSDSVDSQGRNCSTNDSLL

COCCc1ccc(OCC(O)CN2CCN(c3ccc(NS(C)(=O)=O)cc3)CC2)cc1 (stereo not given)
Max delta [1]: 76%
Change [2]: -12%
Change [3]: 9%
Change [4]: 15%
No. effective [5]: 3
C20 [6]: 3.2 µM
IC50 [7]: 109 µM

COc1ccccc1C(O)CNCCOc1ccc(-n2ccnc2)cc1 (stereo not given)
Max delta [8]: 33%
C20 APD95 [6]: 10.4 µM
IC50 [9]: 3.7 µM

CS(=O)(=O)Nc1ccc(CNCC(O)COc2ccccc2)cc1 (stereo not given)
Max delta [1]: 40%
Ratio [10]: 0
C20 [6]: <1 µM
IC50 [7]: 2.9 µM

COCCc1ccc(OCC(O)CNCc2ccc(NS(C)(=O)=O)cc2)cc1 (stereo not given)
Max delta [1]: 57%
IC50 [11]: 7.3 µM
IC50 [12]: 46 µM
C20 [6]: 0.5 µM
IC50 [7]: 25.8 µM

COc1ccc(OCC(O)CNCCNC(=O)c2ccc(NS(C)(=O)=O)cc2)cc1 (stereo not given)
Max delta [1]: 86%
C20 [6]: 0.6 µM
IC50 [7]: 43.8 µM
Ratio [13]: 0

Cc1ccccc1OCC(O)CNCc1ccc(-n2ccnc2)cc1 (stereo not given)
Max delta [1]: 65%
IC50 [11]: 0.8 µM
IC50 [12]: 1.2 µM
C20 [6]: 0.3 µM
IC50 [7]: 0.78 µM

CC(=O)Nc1ccc(OCC(O)CN2CCN(c3ccc(NS(C)(=O)=O)cc3)CC2)cc1 (stereo not given)
Max delta [14]: 39%
C20 [6]: 42 µM
IC50 [7]: 293 µM

CS(=O)(=O)Nc1ccc(OC[C@H](O)CNCCOc2ccc(-n3ccnc3)cc2)cc1
Max delta [8]: 73%

OC(CNCCOc1ccc(-n2ccnc2)cc1)COc1ccccc1 (stereo not given)
Max delta [1]: 21%
IC50 [15]: 0.28 µM
IC50 [16]: 0.04 µM
C20 APD95 [6]: 8.8 µM
IC50 [9]: 0.04 µM

CCN(CC)CCNC(=O)c1ccc(NS(C)(=O)=O)cc1 [SEMATILIDE]
Max delta [14]: 65%
C20 [6]: 4.4 µM

Cc1cccc(OCC(O)CNCc2ccc(NS(C)(=O)=O)cc2)c1 (stereo not given)
Max delta [1]: 44%
IC50 [11]: 2.4 µM
IC50 [12]: 4.4 µM
C20 [6]: <1 µM
IC50 [7]: 0.99 µM

COCCc1ccc(OCC(O)CN2CCN(C(=O)c3ccc(NS(C)(=O)=O)cc3)CC2)cc1 (stereo not given)
Max delta [1]: 56%
C20 [6]: 7.7 µM
IC50 [7]: 360 µM

CS(=O)(=O)Nc1ccc(C(=O)NC2CCCCC2NCC(O)COc2ccccc2)cc1 (stereo not given)
Max delta [1]: 45%
Change [17]: 15%
Change [18]: 17%
C20 [6]: 5.3 µM
IC50 [7]: 192 µM
Ratio [19]: 2
Change [20]: -19%

Cc1cccc(OCC(O)CN2CCN(c3ccc(NS(C)(=O)=O)cc3)CC2)c1 (stereo not given)
Max delta [1]: 55%
Change [21]: 13%
Change [22]: 17%
Change [23]: -1%
No. effective [24]: 3
Change [25]: 13%
IC50 [12]: 49.3 µM
C20 [6]: <1 µM
Change [26]: -21%
Change [27]: 18%

COCCc1ccc(OCC(O)CNCCNC(=O)c2ccc(-n3ccnc3)cc2)cc1 (stereo not given)
Max delta [1]: 70%
C20 [6]: <1.4 µM
IC50 [7]: 12.4 µM

CC(C)NCC(O)c1ccc(NS(C)(=O)=O)cc1 (stereo not given) [SOTALOL]
No. of active/no. of tested [28]: 6
Change [29]: 8%
Change [3]: 9%
Max delta [14]: 48%
Change [30]: -6%
Change [4]: 17%
No. of active/no. of tested [31]: 4
Change [32]: 14%
Change [33]: -10%
C20 [6]: 14.4 µM

CS(=O)(=O)Nc1ccc(C(=O)NCCNCC(O)COc2cccc3ccccc23)cc1 (stereo not given)
Max delta [1]: 48%
C20 [6]: 1.1 µM
IC50 [7]: 0.15 µM
Ratio [13]: 0

CS(=O)(=O)Nc1ccc(C(=O)NCCNCC(O)COc2ccccc2)cc1 (stereo not given)
Max delta [8]: 26%
C20 [6]: 7.1 µM
IC50 [7]: 3.9 µM
Ratio [13]: 0

CS(=O)(=O)Nc1ccc(C(=O)NCCNCC(O)COc2ccccc2C#N)cc1 (stereo not given)
Max delta [8]: 31%
C20 [6]: 23.7 µM
IC50 [7]: 2.9 µM

OC(CNCCOc1ccc(-n2ccnc2)cc1)CONC(C1CC1)C1CC1 (stereo not given)
Max delta [1]: 87%
Change [21]: 2%
Change [34]: 3%
Change [22]: 20%
Change [23]: -5%
Change [35]: -13%
C20 APD95 [6]: 1.5 µM
Change [26]: -18%
IC50 [9]: 0.3 µM

CS(=O)(=O)Nc1ccc(OCC(O)CNCc2ccc(-n3ccnc3)cc2)cc1 (stereo not given)
IC50 [11]: 33.1 µM
Max delta [8]: 67%
C20 [6]: 1.8 µM

CS(=O)(=O)Nc1ccc(C(=O)N2CCN(CC(O)COc3ccccc3)CC2)cc1 (stereo not given)
Max delta [1]: 88%
C20 [6]: <1 µM
IC50 [7]: 12.2 µM

CS(=O)(=O)Nc1ccc(OCC(O)CNCCNC(=O)c2ccc(-n3ccnc3)cc2)cc1 (stereo not given)
Change [17]: 14%
Max delta [14]: 58%
Change [18]: 30%
C20 [6]: 5.8 µM
IC50 [7]: 227 µM
Ratio [19]: 1
Change [20]: -18%

CS(=O)(=O)Nc1ccc(N2CCN(CC(O)COc3cccc4c3CCCC4=O)CC2)cc1 (stereo not given)
Change [21]: 18%
Change [22]: 12%
Max delta [36]: 48%
C20 [6]: 1.9 µM
Change [26]: -1%
IC50 [7]: 8.4 µM
Ratio [37]: 1

COCCc1ccc(OCC(O)CNCCOc2ccc(-n3ccnc3)cc2)cc1 (stereo not given)
IC50 [15]: 4.5 µM
Max delta [14]: 89%
C20 APD95 [6]: 14.8 µM
